One experiment has as its system HOP-62. Kind of experiment: NCI one-dose assay. The following applies: Homo sapiens, HOP-62, Non-small cell lung cancer, read-out: Cell growth inhibition %. In kind it is cell-based.
The next experiment concerns HT29. Kind of experiment: NCI one-dose assay. In kind it is cell-based. Conditions: Homo sapiens, HT-29, HT29, Colon cancer, read-out: Cell growth inhibition %.
A further experiment has as its system LOX IMVI. Kind of experiment: NCI one-dose assay. Format: cell-based. Conditions: Homo sapiens, Melanoma, read-out: Cell growth inhibition %.
The next experiment relates to M14. The experiment in a line: NCI one-dose assay. Conditions: Homo sapiens, M14, Melanoma, read-out: Cell growth inhibition %. Format: cell-based.
The next experiment deals with MCF7. Kind of experiment: NCI one-dose assay. In kind it is cell-based. Conditions: Homo sapiens, MCF7, Breast cancer, read-out: Cell growth inhibition %.
For another experiment, the system named is MDA-MB-435. The experiment in a line: NCI one-dose assay. Format: cell-based. Conditions: Homo sapiens, MDA-MB-435, Melanoma, read-out: Cell growth inhibition %.
In another experiment the test system is MDA-MB-468. Kind of experiment: NCI one-dose assay. In kind it is cell-based. Conditions: Homo sapiens, MDA-MB-468, Breast cancer, read-out: Cell growth inhibition %.
Another experiment relates to NCI-H322M. The experiment in a line: NCI one-dose assay. In kind it is cell-based. The following applies: Homo sapiens, Non-small cell lung cancer, read-out: Cell growth inhibition %.
Another experiment deals with OVCAR-4. Kind of experiment: NCI one-dose assay. In kind it is cell-based. The following applies: Homo sapiens, OVCAR-4, Ovarian cancer, read-out: Cell growth inhibition %.
A further experiment has as its system OVCAR-8. Kind of experiment: NCI one-dose assay. Conditions: Homo sapiens, OVCAR-8, Ovarian cancer, read-out: Cell growth inhibition %. In kind it is cell-based.
The next experiment deals with SF-268. Kind of experiment: NCI one-dose assay. In kind it is cell-based. Conditions: Homo sapiens, SF-268, CNS cancer, read-out: Cell growth inhibition %.
For a further experiment, the system named is SK-MEL-2. The experiment in a line: NCI one-dose assay. The following applies: Homo sapiens, SK-MEL-2, Melanoma, read-out: Cell growth inhibition %. In kind it is cell-based.
In the next experiment the test system is SK-MEL-5. The experiment in a line: NCI one-dose assay. Format: cell-based. Conditions: Homo sapiens, SK-MEL-5, Melanoma, read-out: Cell growth inhibition %.
The next experiment has as its system SNB-19. The experiment in a line: NCI one-dose assay. In kind it is cell-based. Conditions: Homo sapiens, SNB-19, CNS cancer, read-out: Cell growth inhibition %.
For another experiment, the system named is SNB-75. Kind of experiment: NCI one-dose assay. In kind it is cell-based. The following applies: Homo sapiens, SNB-75, CNS cancer, read-out: Cell growth inhibition %.
The subject of the next experiment is SW-620. Kind of experiment: NCI one-dose assay. In kind it is cell-based. The following applies: Homo sapiens, SW-620, Colon cancer, read-out: Cell growth inhibition %.
The test system of a further experiment is T-47D. Kind of experiment: NCI one-dose assay. The following applies: Homo sapiens, T47D, Breast cancer, read-out: Cell growth inhibition %. In kind it is cell-based.
Another experiment deals with TK-10. The experiment in a line: NCI one-dose assay. In kind it is cell-based. Conditions: Homo sapiens, TK-10, Renal cancer, read-out: Cell growth inhibition %.
A further experiment relates to 786-0. Kind of experiment: NCI one-dose assay. In kind it is cell-based, human. The following applies: Homo sapiens, 786-0, 786-0, Renal cancer, read-out: Cell growth inhibition %. On the procedure:
(§1) The National Cancer Institute (NCI), Bethesda, USA, selected the final compounds 6a–j and 7a–j for in vitro anticancer screening. An initial in vitro single-dose anticancer experiment was performed with the entire NCI 60 cell lines derived from nine tumor subpanel cancer cell lines. The results for each compound were illustrated as a mean graph showing the percentage growth of treated cells compared to untreated control cells (see Supplementary Materials).
(§2) The NCI anticancer screening process has been thoroughly detailed. The Drug Evaluation Branch of the National Cancer Institute in Bethesda, […], USA, established the procedure and conducted the anticancer assay on 60 human tumor cell lines from nine neoplastic cancers.

For the next experiment, the system named is A498. Kind of experiment: NCI one-dose assay. In kind it is cell-based, human. Conditions: Homo sapiens, A498, A498, Renal cancer, read-out: Cell growth inhibition %. On the procedure: as §1, §2
The next experiment has as its system HOP-92. Kind of experiment: NCI one-dose assay. In kind it is cell-based, human. Conditions: Homo sapiens, HOP-92, HOP-92, Non-small cell lung cancer, read-out: Cell growth inhibition %. On the procedure:
as §1, §2

Another experiment relates to UO-31. Kind of experiment: NCI one-dose assay. The following applies: Homo sapiens, UO-31, UO-31, Renal cancer, read-out: Cell growth inhibition %. In kind it is cell-based, human. How it is done: as §1, §2
The next experiment has as its system RXF 393. The experiment in a line: NCI one-dose assay. Format: cell-based. The following applies: Homo sapiens, RXF 393, Renal cancer, read-out: Cell growth inhibition %.
Another experiment has as its system NCI 60 cell lines. The experiment in a line: NCI one-dose assay, full panel. In kind it is cell-based, human. The following applies: for anticancer activity (in words): across all cell lines, 10 µM; for inhibition at 10 µM: Homo sapiens. How it is done: as §1, §2

We go through five compounds from publication PMC11859928, “Design, Synthesis, and Antiproliferative Activity of Novel Indole/1,2,4-Triazole Hybrids as Tubulin Polymerization Inhibitors” (Pharmaceuticals, 2025).

Each structure is given as a SMILES string. Read-outs that look alike come from different tables or passages of the source.

`O=C(CSc1nnc(-c2c[nH]c3ccccc23)n1-c1ccccc1)c1ccccc1` [Compound 6f, 2-((5-(1H-indol-3-yl)-4-phenyl-4H-1,2,4-triazol-3-yl)thio)-1-phenylethanone]: the inhibition – broadly, the drop in the measured response relative to a control, in per cent – at 10 µM in the experiment on HOP-62 turned out to be 76.6%; in the experiment on HT29, 52.1%; with LOX IMVI, 70.8%; with M14 it was 26.4%; in the experiment on MCF7, 63.8%; in the experiment with MDA-MB-435, 12.8%. Moreover, the inhibition at 10 µM in the experiment on MDA-MB-468 turned out to be 22.8%; in the experiment with NCI-H322M, 18.8%; in the experiment on OVCAR-4, 102%; in the experiment on OVCAR-8, 85.3%; in the experiment with SF-268, 68.3%; in the experiment on SK-MEL-2 it was 8.14%. Besides, the inhibition at 10 µM was 9.3% in the experiment on SK-MEL-5; 80.8% with SNB-19; -0.34% in the experiment on SNB-75; 23.9% in the experiment on SW-620; 16.5% with T-47D; 28% in the experiment with TK-10. The inhibition at 10 µM in the experiment with 786-0 is 70.4%; with A498 it was -6.16%; in the experiment with HOP-92 it was 53%; in the experiment on UO-31, 44.5%.

As for `C=CCn1c(SC/C(=N\O)c2ccccc2)nnc1-c1c[nH]c2ccccc12` [Compound 7a, (Z)-2-((4-Allyl-5-(1H-indol-3-yl)-4H-1,2,4-triazol-3-yl)thio)-1-phenylethanone Oxime], the inhibition at 10 µM in the experiment on HOP-62 is 9.66%; with HT29 it was -3.61%; in the experiment with M14 it was -13.4%; with MCF7, -2.96%; with MDA-MB-435 it was -5.56%; with MDA-MB-468 it was 15.4%. In addition, the inhibition at 10 µM with NCI-H322M is -0.17%; in the experiment with OVCAR-4, -8.19%; with OVCAR-8, 1.16%; in the experiment with RXF 393 it was -4.5%; with SF-268, -7.26%; with SK-MEL-2, -6.77%. Moreover, the inhibition at 10 µM in the experiment with SK-MEL-5 was 1.57%; with SNB-19 it was 6.82%; in the experiment on SNB-75 it was -3.17%; with SW-620, 0.27%; with T-47D, 8.67%; in the experiment on TK-10 it was -12.2%. Besides, the values for the inhibition at 10 µM in the experiment on 786-0, in the experiment with HOP-92 and in the experiment with UO-31 were 4.91%, 5.05% and 20.9%, respectively. In addition, in the experiment with NCI 60 cell lines, the “anticancer activity (in words)” value was “minimal anticancer activity”.

As to `C=CCn1c(SCC(=NO)c2ccc(OC)cc2)nnc1-c1c[nH]c2ccccc12` [Compound 7b, 2-((4-allyl-5-(1H-indol-3-yl)-4H-1,2,4-triazol-3-yl)thio)-1-(4-methoxyphenyl) Ethanone Oxime], the inhibition at 10 µM in the experiment on HOP-62 was 2%; in the experiment on HT29, -5.85%; in the experiment with M14, 2.83%; in the experiment with MCF7 it was 11.3%; in the experiment on MDA-MB-435 it was -10.6%; in the experiment with MDA-MB-468, 16.3%. Further, the inhibition at 10 µM in the experiment on NCI-H322M is -1.52%; with OVCAR-4, -1.81%; in the experiment with OVCAR-8, 7.1%; with RXF 393, -12.1%; in the experiment with SF-268, -0.98%; with SK-MEL-2, -7.88%. Besides, the inhibition at 10 µM is 10.5% in the experiment on SK-MEL-5; 1.65% in the experiment on SNB-19; -12.9% with SNB-75; -2.43% with SW-620; 26.4% in the experiment with T-47D; -27.2% with TK-10. Further, the inhibition at 10 µM in the experiment on 786-0 was found to be 0.73%; in the experiment with HOP-92, 8.91%; in the experiment with UO-31, 19.2%. In addition, in the experiment on NCI 60 cell lines, the “anticancer activity (in words)” value was “minimal anticancer activity”.

On to `C=CCn1c(SC/C(=N\O)c2ccc(Br)cc2)nnc1-c1c[nH]c2ccccc12` [Compound 7d, (Z)-2-((4-allyl-5-(1H-indol-3-yl)-4H-1,2,4-triazol-3-yl)thio)-1-(4-bromophenyl) Ethanone Oxime], for which the inhibition at 10 µM in the experiment with HOP-62 came to 0.14%; in the experiment on HT29, 3.35%; in the experiment with M14, 19.2%; in the experiment with MCF7, 17.9%; in the experiment on MDA-MB-435, 11.5%; in the experiment with MDA-MB-468, 42.2%. In addition, the inhibition at 10 µM was 16.3% with NCI-H322M; 24.5% in the experiment with OVCAR-4; 18.3% with OVCAR-8; 19.3% with RXF 393; 4.98% in the experiment with SF-268; 8.97% in the experiment on SK-MEL-2. For the same compound, the inhibition at 10 µM was 40.9% in the experiment with SK-MEL-5; 8.36% with SNB-19; 6.02% with SNB-75; 7.31% in the experiment with SW-620; 39.8% in the experiment on T-47D; 12.9% in the experiment with TK-10. In addition, the inhibition at 10 µM is 13.4% in the experiment on 786-0; 21% in the experiment on HOP-92; 38.3% with UO-31; 34 to 47% in the experiment with NCI 60 cell lines (60 cell, eleven cell lines, read-out: growth inhibition percentage, range).

As for `C=CCn1c(SC/C(=N\O)c2ccc(Cl)cc2)nnc1-c1c[nH]c2ccccc12` [Compound 7e, (Z)-2-((4-allyl-5-(1H-indol-3-yl)-4H-1,2,4-triazol-3-yl)thio)-1-(4-chlorophenyl) Ethanone Oxime], the inhibition at 10 µM with HOP-62 turned out to be 7.33%; in the experiment on HT29, 5.77%; in the experiment with M14 it was 16%; in the experiment on MCF7 it was 13.3%; with MDA-MB-435 it was 10.7%; with MDA-MB-468 it was 43.1%. Further, the inhibition at 10 µM in the experiment on NCI-H322M was 11.9%; with OVCAR-4, 19.9%; in the experiment with OVCAR-8, 16.8%; in the experiment with RXF 393 it was 5.62%; with SF-268 it was -1.1%; in the experiment with SK-MEL-2, 3.64%. In addition, the inhibition at 10 µM with SK-MEL-5 came out at 27.4%; in the experiment on SNB-19 it was 12.6%; with SNB-75, 4.75%; with SW-620, 9.5%; in the experiment on T-47D, 46.5%; with TK-10, 1.28%. The inhibition at 10 µM is 11.1% in the experiment on 786-0; 26.5% with HOP-92; 39.5% in the experiment with UO-31; 35 to 46.5% with NCI 60 cell lines (HL-60(TB), K-562, MOLT-4, HCT-116, UACC-62, UO-31, T-47D, MDA-MB-468, read-out: growth inhibition percentage, range).
